These results are taken from PMC4992889, “The viral capping enzyme nsP1: a novel target for the inhibition of chikungunya virus infection” (Scientific Reports, 2016).

Molecules are shown by their SMILES. Like-named read-outs stand apart in the source and are kept apart here.

Data set [1] has as its system MADTP-314res CHIKV 899 variant. The experiment in a line: microbe, parasite or virus in culture. It is filed as cell-based, Chikungunya virus. The conditions noted are these: for EC50: Chikungunya virus, read-out: EC50 MADTP-314res variant 3 (resistance selection).
For data set [2], the system named is CHIKV. The data set can be described thus: Time-of-addition study, CHIKV RNA reduction. The format is cell-based, Chikungunya virus. As to conditions: for reduction in CHIKV RNA: added 6 h post infection, assessed at 24 h post infection.
The test system of data set [3] is CHIKV. As to conditions: cited from earlier work.
In data set [4] the test system is CHIKV strain 899. The experiment in a line: CPE reduction antiviral assay, CHIKV 899 in Vero A cells (MTS/PMS). The format is cell-based. As to conditions: Chikungunya virus.
The subject of data set [5] is CHIKV. As to conditions: cited from earlier work. The source holds these as a separate data set.
For data set [6], the system named is CHIKV strain 899. As to conditions: cited from earlier work.
The target of data set [7] is T1, VEEV nsP1 (Venezuelan equine encephalitis virus, UniProt P36328). The experiment in a line: biochemical.
T1 sequence (P36328 1-535 limits assumed): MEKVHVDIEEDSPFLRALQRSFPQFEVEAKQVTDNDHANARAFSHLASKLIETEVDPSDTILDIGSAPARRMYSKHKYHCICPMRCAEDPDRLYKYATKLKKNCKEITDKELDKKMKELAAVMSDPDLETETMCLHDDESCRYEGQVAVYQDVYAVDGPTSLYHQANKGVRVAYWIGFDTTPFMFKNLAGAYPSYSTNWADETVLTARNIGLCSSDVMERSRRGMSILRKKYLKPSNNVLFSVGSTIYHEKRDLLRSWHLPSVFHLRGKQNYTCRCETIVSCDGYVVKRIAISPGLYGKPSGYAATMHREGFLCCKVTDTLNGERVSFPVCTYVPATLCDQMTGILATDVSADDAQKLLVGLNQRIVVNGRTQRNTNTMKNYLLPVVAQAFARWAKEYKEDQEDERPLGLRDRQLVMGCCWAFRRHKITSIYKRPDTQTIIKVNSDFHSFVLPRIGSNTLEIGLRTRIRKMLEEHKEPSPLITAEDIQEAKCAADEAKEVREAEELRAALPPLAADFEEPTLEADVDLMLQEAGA
The target of data set [8] is T1, VEEV nsP1. The data set can be described thus: biochemical. The format is biochemical.
The subject of a further data set is WT CHIKV LS3. The experiment in a line: microbe, parasite or virus in culture. It is filed as cell-based, Chikungunya virus. The conditions noted are these: for EC50: Chikungunya virus, Vero C1008, read-out: EC50 WT LS3 (reverse genetics).
Data set [9] deals with CHIKV Venturini (Italy 2008). The experiment in a line: Viral RNA reduction (qRT-PCR) antiviral assay in Vero E6 cells. It is filed as cell-based. The conditions noted are these: Chikungunya virus, Vero C1008, read-out: EC50, in vitro antiviral activity against CHIKV Venturini (Italy 2008). Background: Quantitative PCR measures a nucleic acid by following its amplification.
A further data set deals with VEEV TC83. The data set can be described thus: microbe, parasite or virus in culture. As to conditions: Venezuelan equine encephalitis virus, Vero C1008, read-out: EC50, in vitro antiviral activity against VEEV TC83. The format is cell-based.
A short description of another data set: in vitro. As to conditions: African green monkey.
The subject of the next data set is CHIKV Congo 95 (2011). The experiment in a line: Viral RNA reduction (qRT-PCR) antiviral assay in Vero E6 cells. It is filed as cell-based. As to conditions: Chikungunya virus, Vero C1008, read-out: EC50, in vitro antiviral activity against CHIKV Congo 95 (2011).
In the next data set the test system is Vero cells. The conditions noted are these: cited from earlier work.
Data set [10] has as its system CHIKV. The conditions noted are these: clinical studies; cited from earlier work.
Data set [11] deals with CHIKV pseudoparticles (CHIKVpp). The format is cell-based, Chikungunya virus.
In the next data set the test system is CHIKV RNA synthesis. The experiment in a line: Metabolic labeling with 3H-uridine of CHIKV RNA in infected Vero E6 cells. It is filed as cell-based, Chikungunya virus. As to conditions: 50–250 μM.
Data set [12] deals with translation of incoming capped CHIKV RNA. It is filed as cell-based, Chikungunya virus. As to conditions: 250 μM.
In data set [13] the target is CHIKV replication/transcription complexes (RTCs) (Chikungunya virus, UniProt Q8JUX6). The experiment in a line: In vitro RNA synthesis assay with isolated CHIKV replication/transcription complexes (32P-CTP incorporation). It is filed as biochemical. The conditions noted are these: 250 μM.
Chain of CHIKV replication/transcription complexes (RTCs) (Q8JUX6 1864-2474 limits assumed): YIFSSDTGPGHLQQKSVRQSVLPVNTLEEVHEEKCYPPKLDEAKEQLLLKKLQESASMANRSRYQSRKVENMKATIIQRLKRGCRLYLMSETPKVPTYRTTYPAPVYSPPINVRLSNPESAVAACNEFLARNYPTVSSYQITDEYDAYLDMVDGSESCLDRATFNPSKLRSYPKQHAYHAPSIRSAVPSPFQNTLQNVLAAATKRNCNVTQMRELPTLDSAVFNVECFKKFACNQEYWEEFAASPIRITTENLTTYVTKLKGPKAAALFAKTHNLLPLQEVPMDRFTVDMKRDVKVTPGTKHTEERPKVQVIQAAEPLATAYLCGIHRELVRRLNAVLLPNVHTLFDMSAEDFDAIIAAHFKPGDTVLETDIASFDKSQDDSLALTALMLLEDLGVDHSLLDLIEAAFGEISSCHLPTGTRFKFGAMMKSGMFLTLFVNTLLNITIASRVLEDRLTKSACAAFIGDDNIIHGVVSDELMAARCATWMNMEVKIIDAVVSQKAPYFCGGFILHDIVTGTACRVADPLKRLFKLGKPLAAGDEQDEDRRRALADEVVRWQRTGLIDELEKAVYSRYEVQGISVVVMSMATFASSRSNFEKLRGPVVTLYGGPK
Chain of CHIKV replication/transcription complexes (RTCs) (Q8JUX6 1-535 partner limits assumed): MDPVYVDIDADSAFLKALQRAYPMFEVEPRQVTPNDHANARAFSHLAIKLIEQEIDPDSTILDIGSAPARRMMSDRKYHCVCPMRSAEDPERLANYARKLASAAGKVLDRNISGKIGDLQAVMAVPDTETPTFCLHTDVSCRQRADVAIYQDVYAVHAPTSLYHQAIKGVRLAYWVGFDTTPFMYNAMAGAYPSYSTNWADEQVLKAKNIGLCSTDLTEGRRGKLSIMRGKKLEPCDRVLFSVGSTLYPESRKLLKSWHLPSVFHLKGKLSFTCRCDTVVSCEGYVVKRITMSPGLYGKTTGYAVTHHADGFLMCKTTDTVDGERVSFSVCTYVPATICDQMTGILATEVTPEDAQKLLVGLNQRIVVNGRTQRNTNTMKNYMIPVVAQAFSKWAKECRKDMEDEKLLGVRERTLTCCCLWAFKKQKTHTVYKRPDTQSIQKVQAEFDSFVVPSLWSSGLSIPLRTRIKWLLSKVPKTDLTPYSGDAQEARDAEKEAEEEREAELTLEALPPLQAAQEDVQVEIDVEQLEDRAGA
Chain of CHIKV replication/transcription complexes (RTCs) (Q8JUX6 536-1333 partner limits assumed): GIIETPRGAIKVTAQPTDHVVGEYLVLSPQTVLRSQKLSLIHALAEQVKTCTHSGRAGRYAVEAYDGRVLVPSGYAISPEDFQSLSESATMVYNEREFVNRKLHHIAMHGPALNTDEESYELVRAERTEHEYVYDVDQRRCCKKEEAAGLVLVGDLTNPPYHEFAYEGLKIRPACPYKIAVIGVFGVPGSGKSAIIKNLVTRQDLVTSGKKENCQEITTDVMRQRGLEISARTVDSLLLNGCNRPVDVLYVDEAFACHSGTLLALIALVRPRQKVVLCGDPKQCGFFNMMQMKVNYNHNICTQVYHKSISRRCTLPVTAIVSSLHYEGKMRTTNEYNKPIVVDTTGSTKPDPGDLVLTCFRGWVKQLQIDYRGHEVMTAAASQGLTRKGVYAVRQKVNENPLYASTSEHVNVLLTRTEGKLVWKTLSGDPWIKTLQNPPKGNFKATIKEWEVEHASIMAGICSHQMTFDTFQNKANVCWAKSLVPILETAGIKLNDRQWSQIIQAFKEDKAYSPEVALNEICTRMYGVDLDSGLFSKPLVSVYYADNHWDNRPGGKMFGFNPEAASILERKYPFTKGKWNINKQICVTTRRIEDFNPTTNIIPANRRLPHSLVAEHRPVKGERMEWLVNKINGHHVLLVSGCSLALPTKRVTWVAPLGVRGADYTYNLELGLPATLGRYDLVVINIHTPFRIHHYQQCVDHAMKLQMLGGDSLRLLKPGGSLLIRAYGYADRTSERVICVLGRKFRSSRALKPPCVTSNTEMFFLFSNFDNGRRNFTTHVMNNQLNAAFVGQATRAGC
Where [14] appears, read: read-out: EC50 WT 899 (resistance selection).
The mark [15] stands for this setting: 120 h, read-out: EC50, in vitro antiviral activity against CHIKV 899 (lab).

As to `NC(=O)c1nc(F)c[nH]c1=O` [T-705, reference compound], in [1], the “cross-resistance of MADTP-314-resistant variants” value is “No cross-resistance”. The results for the EC50 (in data set [1]; in the data set with CHIKV strain 899 [4] (setting [14])) were 34 ± 5.7 µM and 20 ± 2.7 µM, respectively. In the data set on CHIKV [2], the “reduction in CHIKV RNA” value turned out to be 1.0 log10. In addition, the “anti-CHIKV activity in a mouse model” value with CHIKV [3] was “exerts anti-CHIKV activity”. The “anti-CHIKV activity in vitro” value in the data set on CHIKV [5] was “exerts anti-CHIKV activity”.
On to `CCCOc1ccc(-n2nnc3c(=O)[nH]c(C)nc32)cc1` [MADTP-346], for which the “anti-CHIKV activity in cell culture” value in the data set with CHIKV strain 899 [6] was “devoid of anti-CHIKV activity”. For the same compound, the IC50 on VEEV nsP1 [7] is > 1000 µM. For the same compound, the “GT activity of VEEV nsP1 (formation of m7GMP-nsP1 complex)” value at VEEV nsP1 [8] is “did not inhibit the GT activity”.
For the compound `CCc1nc2c(nnn2-c2cccc(OC(C)C)c2)c(=O)[nH]1` [MADTP-372, 5-ethyl-3-(3-isopropoxyphenyl)-3H-[1,2,3]triazolo[4,5-d]-pyrimidin-7(6H)-one], the EC50 is 4.9 ± 0.6 µM with WT CHIKV LS3; 1.4 ± 0.01 µM in [9]; 255 ± 16 µM in [1]; 6.8 µM in the data set with VEEV TC83; 2.6 ± 1 µM with CHIKV strain 899 [4] (setting [15]); 0.75 ± 0.4 µM in the data set with CHIKV Congo 95 (2011). The values for the IC50 against VEEV nsP1 [7] and at VEEV nsP1 [8] were > 1000 µM and 10 ± 0.3 µM, respectively. Also, the CC50 in the data set “in vitro” is > 668 µM; in the data set on Vero cells, > 400 µM. For the same compound, the “GT activity of VEEV nsP1 (formation of m7GMP-nsP1 complex)” value at VEEV nsP1 [8] is given as “inhibited the GT activity of VEEV nsP1 in a concentration-dependent manner”.
As for `CCN(CC)CCCC(C)Nc1ccnc2cc(Cl)ccc12` (stereo not drawn) [Chloroquine], in data set [1], the “cross-resistance of MADTP-314-resistant variants” value was “No cross-resistance” and the EC50 was found to be 20 ± 4.7 µM. Besides, in the data set on CHIKV [2] (added 2 h before infection), the “reduction of CHIKV RNA” value was 2 log10. In addition, in the data set with CHIKV [2] (added at time points later than 1 h p.i.), the “protective activity in time-of-addition” value is reported as “entirely lost its protective activity”. For the same compound, the “efficacy in infected patients” value with CHIKV [10] is on record as “failed to prove its efficacy”. For the same compound, the EC50 with CHIKV strain 899 [4] (setting [14]) turned out to be 18 ± 11 µM. Also, the “entry of CHIKV pseudoparticles into the host cell” value (from here on “entry”) in data set [11] is “inhibited CHIKVpp entry in a dose-dependent manner”. Also, the “effect on CHIKV replication in vitro” value in the data set with CHIKV [5] is “dose- and time-dependent inhibitory effect”.
For `CCc1nc2c(nnn2-c2cccc(C(C)=O)c2)c(=O)[nH]1` [MADTP-393], the EC50 in the data set on WT CHIKV LS3 stood at 15 ± 0.8 µM; in [9], 8.2 ± 2.2 µM; in data set [1], 193 ± 14 µM; in the data set on VEEV TC83, 35 ± 10 µM; in the data set on CHIKV strain 899 [4] (setting [15]), 18 ± 6.4 µM; with CHIKV Congo 95 (2011), 1.4 ± 0.3 µM. In addition, in “in vitro”, the CC50 worked out at 57 µM.
On to `CC(=O)c1cccc(-n2nnc3c(=O)[nH]c(C)nc32)c1` [MADTP-314, 3-(3′-acetylphenyl)-5-methyl-3H-[1,2,3]triazolo[4,5-d]pyrimidin-7(6H)-one], for which the “CHIKV RNA synthesis (3H-uridine incorporation)” value in the data set with CHIKV RNA synthesis was “did not inhibit CHIKV RNA synthesis”. Also, the “fold less sensitive, CHIKV LS3 vs CHIKV 899” value in the data set with WT CHIKV LS3 worked out at 1.5 fold. Also, the EC50 is 40 ± 5 µM in the data set with WT CHIKV LS3; 26 ± 2 µM in data set [9]; 283 ± 45 µM in data set [1]; > 40 µM in the data set with VEEV TC83; 26 ± 11 µM in the data set on CHIKV strain 899 [4] (setting [15]); 6.4 ± 0.1 µM in the data set with CHIKV Congo 95 (2011). The IC50 against VEEV nsP1 [7] is > 1000 µM. Further, in data set [12], the “luciferase activity (translation of replication-deficient CHIKV RNA)” value is on record as “comparable to that in untreated control cells”. Moreover, in data set [1], the “fold less sensitive, MADTP-314-resistant variants vs wild-type” value is ~ 11 fold. Also, the “reduction in CHIKV RNA” value in the data set with CHIKV [2] amounted to 1.3 log10. Further, in the data set “in vitro”, the CC50 is > 743 µM. For the same compound, the “entry” value in [11] is “not able to block the entry”. Besides, the “incorporation of 32P-CTP into CHIKV RNA by isolated RTCs” value in [13] is “did not inhibit the incorporation”.
Turning to `CCOC(=O)c1c(CSc2ccccc2)n(C)c2cc(Br)c(O)c(CN(C)C)c12` [arbidol], the “entry” value in data set [11] is recorded as “inhibited CHIKVpp entry in a dose-dependent manner”.

As usually defined, the EC50 is the concentration giving half of the maximal effect. Broadly, the IC50 is the midpoint of a concentration-inhibition curve.
